Data published in US20060013804A1, “Modulation of stem cell differentiation by modulation of caspase-3 activity” (Ottawa Health Research Institute, priority 2002, published 2006).

Test system: neurospheres
Assay: Cytotoxicity observed in neurosphere cultures
Type: cell-based, mouse
Conditions: neurosphere experiments
Text: Under growth conditions, neurospheres readily stained for nestin, an intermediate protein highly expressed in early neuronal progenitors (Lendahl et al., Cell 60, 585-595). […] Subsequently, we compared neural differentiation without caspase 3 activity. […] Increased expression of GFAP, MBP are characteristic with the early formation of astrocytes and oligodendrocytes respectively (Gage, F. H. (2000) Science 287, 1433-1438).

Structure (SMILES): CC(=O)N[C@@H](CC(=O)O)C(=O)N[C@@H](CCC(=O)O)C(=O)N[C@H](C(=O)N[C@H](C=O)CC(=O)O)C(C)C [Ac-DEVD-CHO]
- cytotoxicity: high levels of cytotoxicity
